# Test results reported in patent publication US20210386668A1, “Cyclodextrin for use in the treatment and prevention of late phase bronchoconstriction in allergen-induced asthma” (Universite de Liege, priority 2020, published 2021).
# Legend:
# [1] = test system: naïve CD4+ T cells (Balb/c); assay: In-vitro T-cell proliferation assay (BrdU incorporation, IL-2 secretion); type: cell-based, mice; conditions: HPBCD 5 mM, 48 h incubation
# Experimental: The term “T-cell proliferation” means an increase in T-cells over a given period of time. In one embodiment, T-cell proliferation is measured by flow cytometry analysis of lung TH2 cells and total leukocyte counts. An exemplary embodiment of a way to measure T-cell proliferation is given in example 1 below. In one embodiment, naïve CD4+ T cells are exposed to HPBCD at a concentration of 5 mM and an anti-CD3 (3 mcg/ml) for 24 hours or 48 hours with HPBCD (5 mM) or with culture medium alone at 37° C. 5% CO2. During the last 2 hours of the proliferation test, Bromodeoxyuridine is added to the medium and incorporation is quantified by ELISA. IL-2 secretion is measured in the medium after 24 hours and 48 hours of anti-CD3 stimulation through ELISA. HPBCD was used at a concentration of 5 mM. […] Naïve CD4+ T cells were isolated from Balb/c mice spleen and purified with a MACS® negative selection kit. 1.5×10^5 cells were seeded in a 96 well plate and incubated with HPBCD 5 mM (in RPMI 10% FBS 1% pen/strep) or with medium alone for 3 h. Cells were then recovered and plated in an anti-CD3 (3 mcg/ml) coated well for 24 or 48 h with HPBCD (5 mM) or with culture medium alone at 37° C. 5% CO2. During the last 2 h of the proliferation test, BrdU was added to medium and incorporation was quantified by ELISA following manufacturer instructions. […]
# [2] = test system: healthy subjects; assay: Phase 1 clinical trial, single and multiple HPBCD inhalation; type: in vivo, human
# From the text: Clinical trial protocols have been approved by an independent ethical committee (CHU Liege—University of Liege) in accordance with GCPs, Declaration of Helsinki and European regulations (EudraCT). All participants gave written informed consent before any study-specific procedure. For the phase 1 clinical trial, 8 healthy subjects (4 women and 4 men) from 18 to 40 years were recruited and enrolled in the study at the University Hospital of Liege (Belgium). Patients were randomized and received first the placebo (NaCl 0.9%) or HPBCD at 2.5 mM and 8 days after, the opposite treatment. After 1 week, all patients received HPBCD at 15 mM. One month later, all patients received HPBCD at 15 mM during 5 consecutive days. Apyrogenic and sterile HPBCD powder was diluted with NaCl 0.9% before inhalation (8 ml) with an ultrasonic nebulizer (Devilbiss 2000). General symptoms, asthma scores (ACQ), dyspnea, chest Rx, clinical biology, ECG, vital signs, spirometry, NO, sputum (induced by NaCl 4.5%) were analyzed after treatment periods. The second clinical trial (phase 2a-proof of concept) was a double-blinded, cross-over, placebo-controlled study. 17 mild to moderate asthmatic patients were included in the study at two different sites (University Hospital of Liege and University Hospital Erasme) in Belgium. Characterization visits consisted of dyspnea symptoms recording, ECG, chest Rx, clinical biology, spirometry and vital signs analysis. PD20 (provocative dose that causes a 20% fall in FEV1 from the saline alone value) to inhaled allergen was determined. […] The PD20 of the allergen was calculated from a cumulative dose-response curve, as described previously, Cataldo et al., Matrix metalloproteinase-9, but not tissue inhibitor of matrix metalloproteinase-1, increases in the sputum from allergic asthmatic patients after allergen challenge, Chest. 2002; 122(5):1553-9. All […] received a cumulative concentration of Dermatophagoides pteronyssinus with a reactivity index of 6. After 14 days wash-out period, patients were randomly divided into two groups and received either HPBCD 15 mM or Placebo (NaCl 0.9%) by inhalation (ultrasonic nebulizer (Devilbiss 2000)) twice daily. At the end of this treatment period, lung function (FEV1) was analyzed after allergen (HDM) challenge under the supervision of experienced respiratory clinical physiologists. FEV1 was measured after allergen inhalation challenge at 5, 15, 30, 60, 120, 180, 240, 300 and 360 min. After 28 days wash-out period, patients received the opposite treatment for another 14 days and the FEV1 following allergen challenge was evaluated. All clinical parameters were examined after each treatment period. The endpoint of this proof of concept study was changes in FEV1 over 0-360 min post-allergen challenges. FEV1 in early phase (0-60 min) and late phase (180-360 min) were expressed as: area under the FEV1-versus-time curve (AUC), maximum percentage fall and average percentage fall (calculated by dividing the area under the curve of the percentage fall in FEV1 by the duration of the response period). One patient who received placebo had negative maximum FEV1 decrease and negative average percentage fall in FEV1. These negative values were truncated to 0. Patients had access to […] (salbutamol 100 μg) throughout the study as an «as needed» treatment.
# Data are presented as mean±SEM unless specified. The differences between mean values were estimated using a two-tailed Mann-Whitney test (animal and in vitro experiments) unless specified. All animal experiments were repeated at least 2 times; n 6 in each experimental group. ANOVA Friedman test (single dose) and Wilcoxon signed rank test (multiple doses) were used to analyze results obtained during the phase 1 clinical trial. One-tailed Wilcoxon matched pairs test was used to evaluate intra-individual differences in the proof of concept clinical trial. A P value less than 0.05 was considered significant. […]
# [3] = multiple dose HPBCD 15 mM, after 5 days inhalation
# [4] = multiple dose HPBCD 15 mM, after 5 days inhalation, mean ± SD
# [5] = single dose, HPBCD 2.5 mM, mean ± SD
# [6] = single dose, HPBCD 15 mM, mean ± SD
smiles,measurement,setting,value
"CC(O)COC[C@H]1O[C@@H]2O[C@H]3[C@H](O)[C@@H](O)[C@@H](O[C@H]4[C@H](O)[C@@H](O)[C@@H](O[C@H]5[C@H](O)[C@@H](O)[C@@H](O[C@H]6[C@H](O)[C@@H](O)[C@@H](O[C@H]7[C@H](O)[C@@H](O)[C@@H](O[C@H]8[C@H](O)[C@@H](O)[C@@H](O[C@H]1[C@H](O)[C@H]2O)O[C@@H]8COCC(C)O)O[C@@H]7COCC(C)O)O[C@@H]6COCC(C)O)O[C@@H]5COCC(C)O)O[C@@H]4COCC(C)O)O[C@@H]3COCC(C)O (stereo partly drawn) [HPBCD, 2-hydroxypropyl-beta-cyclodextrin]",cytotoxicity (BrdU incorporation),[1],not associated with cytotoxicity
same,Eosinophils (sputum) 5 h after inhalation,[2]; [3],0.00%
same,QT,[2]; [3],393.50 ms
same,QtTc,[2]; [3],393.30 ms
same,FEV1 15 min after inhalation,[2]; [4],4.13 ± 0.87 L
same,FEV1 1 h after inhalation,[2]; [4],4.07 ± 0.82 L
same,FEV1 3 h after inhalation,[2]; [4],4.11 ± 0.87 L
same,FEV1 5 h after inhalation,[2]; [4],4.1 ± 0.87 L
same,No measurements (ppb) 15 min after inhalation,[2]; [4],25.16 ± 9.76 ppb
same,Eosinophils (sputum) 5 h after inhalation,[2]; [5],0.00 ± 0.00%
same,FEV1 15 min after inhalation,[2]; [5],4.08 ± 0.87 L
same,FEV1 1 h after inhalation,[2]; [5],4.11 ± 0.83 L
same,FEV1 3 h after inhalation,[2]; [5],4.1 ± 0.82 L
same,FEV1 5 h after inhalation,[2]; [5],4.11 ± 0.87 L
same,No measurements (ppb) 15 min after inhalation,"[2]; single dose, HPBCD 2.5 mM, mean ± SD, n = 8",23.85 ± 7.56 ppb
same,Eosinophils (sputum) 5 h after inhalation,[2]; [6],0.20 ± 0.49%
same,FEV1 15 min after inhalation,[2]; [6],4.01 ± 0.87 L
same,FEV1 1 h after inhalation,[2]; [6],4.04 ± 0.86 L
same,FEV1 3 h after inhalation,[2]; [6],4.07 ± 0.85 L
same,FEV1 5 h after inhalation,[2]; [6],4.08 ± 0.92 L
same,No measurements (ppb) 15 min after inhalation,"[2]; single dose, HPBCD 15 mM, mean ± SD, n = 8",28.48 ± 17.92 ppb
